From patent US8372443B2, “Methods and compositions for the treatment and prevention of citrus greening disease” (priority 2008, dated 2013)

Assays:
D. citri [1] = assay: 4-choice olfactometer behavioral bioassay; format: in vivo, Diaphorina citri; conditions: for t (percentages of repelled versus attracted D. citri, student's t-test): laboratory air, 1.5 h
Experimental: Adult D. citri used for the behavioral bioassays were drawn from a continuously reared culture at the University of Florida Citrus Research and Education Center (Lake Alfred, USA) and established in 2000 from field populations in Polk Co., FL, USA (28.0′N, 81.9′W) prior to the discovery of citrus greening disease in FL. This culture is maintained on sour orange (Citrus aurantium L.) and ‘Hamlin’ orange [C. sinensis (L.)] seedlings at 27±1° C., 63±2% RH, and L14:D10 photoperiod. Freshly emerged unsexed adult psyllids were first placed on citrus seedlings in Plexiglass cages for up to 7 d for sexual maturation prior to use in experiments.
Husbandry methods for the ‘white’ guava and ‘Hamlin’ citrus plants used in these investigations have been described previously (Rouseff et al., 2008). ‘Hamlin’ citrus was selected for analysis because it is one of the most highly cultivated citrus varieties in Florida. Half of the samples were gently crushed (using a clean glass rod) to simulate plant damage and the remaining half were not crushed. All samples ([…] leaf flush/sample) were wrapped in Kim wipes (Kimberly-Clark®, Ontario, Canada) and placed in 2.5 cm×12.5 cm extending glass tubes of a 4-choice olfactometer [Analytical Research Systems, ARS (Gainesville, Fla.)], for behavioral investigations described below.
Behavioral responses of D. citri to citrus volatiles with or without guava or DMDS volatiles were quantified using a 4-choice olfactometer (Analytical Research Systems, Inc. (ARS), Gainesville, Fla., USA) based on the design of Pettersson (1970), Vet et al. (1983) and Kalule & Wright (2004). The olfactometer consists of a 5 cm×30 cm×30 cm stage on four 2.5 cm×15 cm legs with extending orifices on four sides of the stage. Charcoal-purified and humidified air was drawn through these arms via a vacuum pump creating four potential odor fields. Air pulled through the olfactometer was evacuated through a central orifice on the floor of the stage. During each experimental run, two of the four orifices on the sides of the stage were designated for odor stimuli treatments and the two others were left as blank. […] The effect of repellent chemicals was measured by adding guava leaves or a formulation of synthetic DMDS to citrus flush in two arms of the olfactometer as described below. […]
The behavioral response of adult D. citri to clean laboratory air was first investigated to 4 blank arms of the olfactometer as a negative control to ensure no positional bias. Thereafter, D. citri response was measured to citrus leaf volatiles with and without volatiles from guava leaves or synthetic DMDS. […]

D. citri [2] = assay: Y-tube olfactometer test; format: in vivo, Diaphorina citri
Experimental: In order to confirm the repellent effect of synthetic DMDS against D. citri, an additional study using a Y-tube olfactometer (ARS, Gainesville, Fla., USA) was conducted. The Y-tube consisted of a central stem (13.5 cm long, 2.4 cm o.d.) with two lateral arms (5.75 cm long, 2.4 cm o.d.). The lateral arms were connected to extending glass tubes (14.5 cm long, 1.9 cm o.d.) with inlayed sieves (5.25 cm away from connection) to prevent insect escape and serve as an end point of the lateral arms. Charcoal-filtered laboratory air was passed from an air pump, into each of the extending arms of the olfactometer at a rate 100 mL/min. […]
Adult psyllids that oriented to any of the four arms of the olfactometer were categorized as attracted and those that remained in the olfactometer's central orifice (release point) until the 1.5 h experimental period elapsed as repelled. […] Subsequently, data obtained for D. citri orientation to the four arms (two volatile sources and two laboratory air) was analyzed for each treatment using one-way step-wise ANOVA followed by Tukey's HSD test (P<0.05, SAS Institute Inc., 2003). The data obtained from the Y-tube olfactometer bioassays was analyzed using Chi-square (χ^2) analyses (Parker, 1979) to compare between the numbers of attracted versus repelled D. citri (P<0.05).

[3] = system: Mediterranean fruit fly, Ceratitis capitata; conditions: literature reference 23; cited from earlier work

Structure (SMILES) | repellence of adult D. citri at the selected dosage (preliminary investigation) (D. citri [1]; 100 μL of a 4.3 μg/μL (w/v) solution in mineral oil on cotton wick, compared with lower dosages on a log scale (data not shown)) | t (percentages of repelled versus attracted D. citri, student's t-test) (D. citri [1]; Experiment 2: arms laboratory air, intact citrus, DMDS, 100 μL of 4.3 μg/μL DMDS in mineral oil) | t (percentages of repelled versus attracted D. citri, student's t-test) (D. citri [1]; Experiment 3: arms laboratory air, crushed citrus, DMDS) | t (percentages of repelled versus attracted D. citri, student's t-test) (D. citri [1]; Experiment 4: arms laboratory air, mineral oil, DMDS (DMDS only)) | effect on D. citri's response to citrus flush volatiles (D. citri [2]; Y-tube first experiment: 100 μL DMDS solution in mineral oil plus ~3.5 g citrus flush in both arms versus citrus alone, χ2=2.57, P=0.109) | percentage of D. citri choosing the arm releasing clean air versus DMDS (D. citri [2]; Y-tube second experiment: DMDS in mineral oil in one arm, clean laboratory air in the other, 300 s, χ2=5.0, P=0.025) [%] | reported behavioural effect on Mediterranean fruit fly [3]
CSSC [DMDS, dimethyl disulfide] | optimally repel | 3.05 | 7.23 | 6.25 | significantly inhibited | ~75 | 
CC1=CC[C@H]2[C@H]3[C@@H]1[C@]2(C)CC[C@H]3C(C)C [α-Copaene] |  |  |  |  |  |  | attractant
